Measurements: PubChem BioAssay (NCI)
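Each compound was tested at five concentrations against cells in 96-well plates for 48 hours. At the TGI there is no net growth.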

How the values were obtained:
Assay in all cases: NCI-60 cell line screen, 48 h
786-0 renal = system: 786-0 renal
A498 renal = system: A498 renal
A549 NSCLC = system: A549 NSCLC
ACHN renal = system: ACHN renal
BT-549 breast = system: BT-549 breast
CAKI-1 renal = system: CAKI-1 renal
CCRF-CEM leukemia = system: CCRF-CEM leukemia
COLO 205 colon = system: COLO 205 colon
DU-145 prostate = system: DU-145 prostate
EKVX NSCLC = system: EKVX NSCLC
HCT-116 colon = system: HCT-116 colon
HCT-15 colon = system: HCT-15 colon
HL-60(TB) leukemia = system: HL-60(TB) leukemia
HOP-62 NSCLC = system: HOP-62 NSCLC
HOP-92 NSCLC = system: HOP-92 NSCLC
HS 578T breast = system: HS 578T breast
HT29 colon = system: HT29 colon
IGROV1 ovarian = system: IGROV1 ovarian
K-562 leukemia = system: K-562 leukemia
KM12 colon = system: KM12 colon
LOX IMVI melanoma = system: LOX IMVI melanoma
M14 melanoma = system: M14 melanoma
MCF7 breast = system: MCF7 breast
MDA-MB-231 breast = system: MDA-MB-231 breast
MDA-MB-435 = system: MDA-MB-435
MDA-N = system: MDA-N
MOLT-4 leukemia = system: MOLT-4 leukemia
NCI-H226 lung = system: NCI-H226 lung
NCI-H23 lung = system: NCI-H23 lung
NCI-H460 lung = system: NCI-H460 lung
NCI/ADR-RES ovarian = system: NCI/ADR-RES ovarian
OVCAR-3 ovarian = system: OVCAR-3 ovarian
OVCAR-5 ovarian = system: OVCAR-5 ovarian
OVCAR-8 ovarian = system: OVCAR-8 ovarian
PC-3 prostate = system: PC-3 prostate
RPMI-8226 leukemia = system: RPMI-8226 leukemia
SF-268 CNS = system: SF-268 CNS
SF-295 CNS = system: SF-295 CNS
SF-539 CNS = system: SF-539 CNS
SK-MEL-2 melanoma = system: SK-MEL-2 melanoma
SK-MEL-28 melanoma = system: SK-MEL-28 melanoma
SK-MEL-5 melanoma = system: SK-MEL-5 melanoma
SK-OV-3 ovarian = system: SK-OV-3 ovarian
SN12C renal = system: SN12C renal
SNB-19 CNS = system: SNB-19 CNS
SNB-75 CNS = system: SNB-75 CNS
SR leukemia = system: SR leukemia
SW-620 colon = system: SW-620 colon
T-47D breast = system: T-47D breast
TK-10 renal = system: TK-10 renal
U251 CNS = system: U251 CNS
UACC-257 melanoma = system: UACC-257 melanoma
UACC-62 melanoma = system: UACC-62 melanoma
UO-31 renal = system: UO-31 renal
HCC-2998 colon = system: HCC-2998 colon
MALME-3M melanoma = system: MALME-3M melanoma
OVCAR-4 ovarian = system: OVCAR-4 ovarian
RXF 393 renal = system: RXF 393 renal
NCI-H522 lung = system: NCI-H522 lung

Measured: TGI

O=c1n(-c2ccccc2)c(=O)n2n1C1CCC2CC1
not listed: HCC-2998 colon | MALME-3M melanoma | OVCAR-4 ovarian | RXF 393 renal | NCI-H522 lung
> 100 µM: all other assays above

NC(C(F)(F)F)(C(F)(F)F)P(=O)(c1ccccc1)c1ccccc1
not listed: A498 renal | NCI-H522 lung
> 100 µM: all other assays above

CCOC(=O)N1c2ccccc2S(=O)(=O)c2ccccc21
not listed: HOP-92 NSCLC | RPMI-8226 leukemia | SNB-75 CNS | SR leukemia | MALME-3M melanoma
> 100 µM: all other assays above

O=C1Nc2ccccc2[C@]12C[C@H]2c1ccccn1
not listed: HL-60(TB) leukemia | HS 578T breast | HT29 colon | OVCAR-8 ovarian | SNB-75 CNS | SR leukemia
> 100 µM: all other assays above
